# Reference: ChEMBL document CHEMBL4346735, “Discovery and pharmacological evaluation of indole derivatives as potent and selective RORγt inverse agonist for multiple autoimmune conditions” (Bioorg Med Chem Lett, 2019)
# The source made the active and inactive calls. The calls are words filed in the database; no cut-off is given here.
# What was measured:
# Cytochrome P450 2C9 = Cytochrome P450 2C9 (Homo sapiens, UniProt P11712); test: Inhibition of CYP2C9 in human liver microsomes using diclofenac as substrate preincubated for 5 mins followed by NADPH addition measured after 10 mins by LC-MS/MS analysis
# Chain of Cytochrome P450 2C9 (P11712 whole entry, the tested form may be a part): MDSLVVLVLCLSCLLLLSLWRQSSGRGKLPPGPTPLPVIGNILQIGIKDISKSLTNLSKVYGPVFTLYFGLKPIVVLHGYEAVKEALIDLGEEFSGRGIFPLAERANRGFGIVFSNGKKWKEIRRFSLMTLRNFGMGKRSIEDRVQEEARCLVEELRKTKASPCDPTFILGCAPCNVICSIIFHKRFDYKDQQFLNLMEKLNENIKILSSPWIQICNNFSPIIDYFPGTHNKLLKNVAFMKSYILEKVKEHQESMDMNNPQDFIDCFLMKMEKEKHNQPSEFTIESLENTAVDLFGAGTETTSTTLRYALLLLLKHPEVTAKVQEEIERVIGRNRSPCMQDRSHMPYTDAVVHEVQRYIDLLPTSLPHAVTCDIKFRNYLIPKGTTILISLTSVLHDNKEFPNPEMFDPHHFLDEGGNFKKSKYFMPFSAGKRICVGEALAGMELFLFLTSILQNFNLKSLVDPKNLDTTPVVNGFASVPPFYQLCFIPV
# [1] = molecular target: T1, Nuclear receptor ROR-gamma (Homo sapiens, UniProt P51449); test: Inverse agonist activity at GST-tagged RORgammat LBD (unknown origin) using fluorescein-D22 co-activator peptide as substrate incubated for 1 hr by TR-FRET assay
# T1 sequence (P51449 whole entry): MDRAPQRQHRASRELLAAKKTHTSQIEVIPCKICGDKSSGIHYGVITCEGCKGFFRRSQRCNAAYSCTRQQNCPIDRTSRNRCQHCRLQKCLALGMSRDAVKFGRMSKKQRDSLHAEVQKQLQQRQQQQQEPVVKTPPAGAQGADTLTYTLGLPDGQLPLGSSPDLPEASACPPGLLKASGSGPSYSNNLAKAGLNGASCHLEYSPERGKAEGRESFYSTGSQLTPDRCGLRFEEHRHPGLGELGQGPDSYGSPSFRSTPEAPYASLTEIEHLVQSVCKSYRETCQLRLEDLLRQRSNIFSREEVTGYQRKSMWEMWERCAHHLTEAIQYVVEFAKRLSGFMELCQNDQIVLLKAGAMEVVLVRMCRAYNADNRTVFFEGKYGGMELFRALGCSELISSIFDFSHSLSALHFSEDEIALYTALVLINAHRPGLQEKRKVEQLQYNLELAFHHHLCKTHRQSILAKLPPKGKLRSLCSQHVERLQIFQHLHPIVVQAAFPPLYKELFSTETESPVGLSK
# [2] = Metabolic stability in rat liver microsomes assessed as parent compound remaining at 1 uM preincubated for 5 mins followed by NADPH addition after 30 mins by LC-MS/MS analysis; assay type: ADME, Microsome; conditions: read-out: Stability
# [3] = molecular target: T2, Nuclear receptor ROR-gamma (Mus musculus, UniProt P51450); test: Inverse agonist activity at RORgammat in mouse splenocytes derived naive T cells assessed as suppression of T cell differentiation to Th17 cells by measuring IL-17 secretion in presence of […]/anti-IFNgamma/TGFbeta/IL-6 for 6 days by ELISA; assay type: cell-based
# T2 sequence (P51450 whole entry): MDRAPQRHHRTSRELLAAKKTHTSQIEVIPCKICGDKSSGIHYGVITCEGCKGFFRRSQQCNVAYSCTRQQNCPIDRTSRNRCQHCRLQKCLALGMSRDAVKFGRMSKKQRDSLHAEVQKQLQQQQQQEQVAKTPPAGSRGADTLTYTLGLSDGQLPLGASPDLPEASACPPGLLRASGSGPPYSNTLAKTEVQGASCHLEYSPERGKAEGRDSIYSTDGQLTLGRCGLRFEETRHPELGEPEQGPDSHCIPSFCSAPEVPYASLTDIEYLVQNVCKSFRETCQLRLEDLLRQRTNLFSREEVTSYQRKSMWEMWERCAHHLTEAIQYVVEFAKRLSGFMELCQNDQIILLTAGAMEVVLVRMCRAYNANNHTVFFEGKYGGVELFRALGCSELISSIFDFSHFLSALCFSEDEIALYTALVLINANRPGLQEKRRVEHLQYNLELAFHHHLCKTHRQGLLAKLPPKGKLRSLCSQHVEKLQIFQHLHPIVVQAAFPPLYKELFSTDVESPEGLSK
# [4] = Drug metabolism in human pooled liver microsomes assessed as oxidation metabolic rate at 1 uM preincubated for 5 mins followed by NADPH addition after 30 mins by LC-MS/MS analysis; assay type: ADME, Microsome; conditions: 0.5 h
# [5] = Half life in Balb/c mouse at 3 mg/kg, iv administered as single dose by LC-MS/MS analysis; assay type: ADME, organism-based; conditions: in vivo
# [6] = Drug metabolism in mouse liver microsomes assessed as oxidation metabolic rate at 1 uM preincubated for 5 mins followed by NADPH addition after 30 mins by LC-MS/MS analysis; assay type: ADME, Microsome; conditions: 0.5 h
# [7] = molecular target: T1, Nuclear receptor ROR-gamma; test: Transactivation of recombinant GAL4-DBD fused RORgammat LBD (unknown origin) expressed in HEK293T cells incubated for 18 to 24 hrs by dual-Glo luciferase assay; assay type: cell-based
# [8] = Drug metabolism in rat liver microsomes assessed as oxidation metabolic rate at 1 uM preincubated for 5 mins followed by NADPH addition after 30 mins by LC-MS/MS analysis; assay type: ADME, Microsome; conditions: 0.5 h
# [9] = Solubility of the compound at pH 4; conditions: buffer
# [10] = Metabolic stability in human liver microsomes assessed as parent compound remaining at 1 uM preincubated for 5 mins followed by NADPH addition after 30 mins by LC-MS/MS analysis; assay type: ADME, Microsome; conditions: read-out: Stability
# [11] = Solubility of the compound at pH 2.1; conditions: buffer
# [12] = Solubility of the compound at pH 7.4; conditions: buffer
# Cytochrome P450 2C19 = Cytochrome P450 2C19 (Homo sapiens, UniProt P33261); test: Inhibition of CYP2C19 in human liver microsomes using (S)-mephenytoin as substrate preincubated for 5 mins followed by NADPH addition measured after 40 mins by LC-MS/MS analysis
# Chain of Cytochrome P450 2C19 (P33261 whole entry): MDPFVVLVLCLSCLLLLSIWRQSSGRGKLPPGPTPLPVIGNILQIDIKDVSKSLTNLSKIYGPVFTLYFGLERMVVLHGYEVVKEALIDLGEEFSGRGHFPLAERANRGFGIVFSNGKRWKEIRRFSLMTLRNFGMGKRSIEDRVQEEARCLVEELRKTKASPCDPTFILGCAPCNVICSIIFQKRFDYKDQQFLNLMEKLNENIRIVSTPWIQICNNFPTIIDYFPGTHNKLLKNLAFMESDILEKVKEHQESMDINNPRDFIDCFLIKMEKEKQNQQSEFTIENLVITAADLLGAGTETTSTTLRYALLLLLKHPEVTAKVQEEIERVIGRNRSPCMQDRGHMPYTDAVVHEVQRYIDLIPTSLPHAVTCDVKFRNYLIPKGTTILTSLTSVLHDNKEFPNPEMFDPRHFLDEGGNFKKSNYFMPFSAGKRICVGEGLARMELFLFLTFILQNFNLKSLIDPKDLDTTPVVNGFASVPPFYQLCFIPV
# Cytochrome P450 1A2 = molecular target: T3, Cytochrome P450 1A2 (Homo sapiens, UniProt P05177); test: Inhibition of CYP1A2 in human liver microsomes using phenacetin as substrate preincubated for 5 mins followed by NADPH addition measured after 10 mins by LC-MS/MS analysis
# T3 sequence (P05177 whole entry): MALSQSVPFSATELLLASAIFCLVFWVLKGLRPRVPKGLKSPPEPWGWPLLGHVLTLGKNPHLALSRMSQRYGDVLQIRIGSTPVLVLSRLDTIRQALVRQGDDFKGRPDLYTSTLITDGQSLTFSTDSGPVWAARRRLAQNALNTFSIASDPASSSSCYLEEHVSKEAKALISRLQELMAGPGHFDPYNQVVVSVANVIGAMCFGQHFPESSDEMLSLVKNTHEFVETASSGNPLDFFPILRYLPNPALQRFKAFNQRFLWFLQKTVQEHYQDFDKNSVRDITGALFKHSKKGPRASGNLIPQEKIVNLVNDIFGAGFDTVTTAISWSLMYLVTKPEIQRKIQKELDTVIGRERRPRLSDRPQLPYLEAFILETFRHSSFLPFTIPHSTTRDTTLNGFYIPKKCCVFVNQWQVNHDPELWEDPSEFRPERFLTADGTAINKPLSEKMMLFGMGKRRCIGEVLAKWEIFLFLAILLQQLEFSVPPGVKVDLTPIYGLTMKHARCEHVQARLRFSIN
# Cytochrome P450 3A4 [13] = molecular target: T4, Cytochrome P450 3A4 (Homo sapiens, UniProt P08684); test: Inhibition of CYP3A4 in human liver microsomes using testosterone as substrate preincubated for 5 mins followed by NADPH addition measured after 10 mins by LC-MS/MS analysis
# T4 sequence (P08684 whole entry): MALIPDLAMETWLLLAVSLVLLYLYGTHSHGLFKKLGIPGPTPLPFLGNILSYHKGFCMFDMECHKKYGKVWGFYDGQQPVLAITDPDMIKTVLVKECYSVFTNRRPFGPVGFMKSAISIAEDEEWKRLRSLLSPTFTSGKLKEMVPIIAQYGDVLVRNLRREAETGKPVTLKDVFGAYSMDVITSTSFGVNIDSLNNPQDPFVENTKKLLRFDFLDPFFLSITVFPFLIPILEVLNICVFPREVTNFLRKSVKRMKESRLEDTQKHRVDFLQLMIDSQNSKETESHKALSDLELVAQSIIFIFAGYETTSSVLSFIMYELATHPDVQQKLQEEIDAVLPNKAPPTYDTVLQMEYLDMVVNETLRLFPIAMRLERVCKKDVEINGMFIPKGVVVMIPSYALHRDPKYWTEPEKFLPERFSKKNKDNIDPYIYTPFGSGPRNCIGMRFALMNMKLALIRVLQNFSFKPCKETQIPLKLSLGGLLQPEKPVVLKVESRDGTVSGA
# [14] = AUC (0 to t) in Balb/c mouse at 3 mg/kg, iv administered as single dose by LC-MS/MS analysis; assay type: ADME, organism-based; conditions: in vivo
# Cytochrome P450 3A4 [15] = molecular target: T4, Cytochrome P450 3A4; test: Inhibition of CYP3A4 in human liver microsomes using midazolam as substrate preincubated for 5 mins followed by NADPH addition measured after 10 mins by LC-MS/MS analysis
# Cytochrome P450 2D6 = Cytochrome P450 2D6 (Homo sapiens, UniProt P10635); test: Inhibition of CYP2D6 in human liver microsomes using dextromethorphan as substrate preincubated for 5 mins followed by NADPH addition measured after 10 mins by LC-MS/MS analysis
# Chain of Cytochrome P450 2D6 (P10635 whole entry): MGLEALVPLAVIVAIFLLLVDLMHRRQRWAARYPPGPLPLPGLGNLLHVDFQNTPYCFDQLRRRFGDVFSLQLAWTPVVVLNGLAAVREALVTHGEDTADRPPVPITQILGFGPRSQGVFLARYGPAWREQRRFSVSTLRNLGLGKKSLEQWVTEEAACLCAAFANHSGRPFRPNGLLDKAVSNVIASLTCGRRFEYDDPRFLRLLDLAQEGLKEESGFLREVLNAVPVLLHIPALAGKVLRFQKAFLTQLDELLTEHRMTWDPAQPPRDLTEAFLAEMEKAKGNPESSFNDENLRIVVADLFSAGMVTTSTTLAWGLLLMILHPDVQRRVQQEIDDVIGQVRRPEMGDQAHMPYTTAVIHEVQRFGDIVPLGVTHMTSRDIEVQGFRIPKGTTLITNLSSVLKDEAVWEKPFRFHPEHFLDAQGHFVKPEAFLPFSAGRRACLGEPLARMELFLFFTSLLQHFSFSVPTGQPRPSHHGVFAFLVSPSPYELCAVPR
# [16] = Metabolic stability in mouse liver microsomes assessed as parent compound remaining at 1 uM preincubated for 5 mins followed by NADPH addition after 30 mins by LC-MS/MS analysis; assay type: ADME, Microsome; conditions: read-out: Stability
# [17] = Oral bioavailability in Balb/c mouse at 10 mg/kg administered via gavage by LC-MS/MS analysis; assay type: ADME, organism-based; conditions: in vivo
# [18] = Clearance in Balb/c mouse at 3 mg/kg, iv administered as single dose by LC-MS/MS analysis; assay type: ADME, organism-based; conditions: in vivo
# [19] = molecular target: T5, Nuclear receptor ROR-gamma (Homo sapiens) (UniProt P51449); test: Transactivation of recombinant GAL4-DBD fused RORgammat LBD (unknown origin) expressed in HEK293T cells at 10 uM incubated for 18 to 24 hrs by dual-Glo luciferase assay relative to control; assay type: cell-based
# T5 sequence (whole entry): T1 sequence (P51449 whole entry)
# Mus musculus [20] = test: Protection against imiquimod-induced skin inflammation in BALB/c mouse psoriasis model assessed as decrease in ear thickness administered topically at 25 mg qd treated for 1 hr before IMQ application measured at day 5; assay type: functional, organism-based
# Mus musculus [21] = test: Protection against imiquimod-induced skin inflammation in BALB/c mouse psoriasis model assessed as decrease in scaling administered topically at 25 mg qd treated for 1 hr before IMQ application measured at day 5; assay type: functional, organism-based
smiles,measurement,setting,value
O=C(O)c1ccc(-n2cc(C(=O)c3c(Cl)cccc3Cl)c3ccccc32)cc1,IC50,Cytochrome P450 2C9,3.8 µM
same,IC50,[1],0.0016 µM
same,"remaining at 0.5 h, 1 µM",[2],76%
same,IC50,[3],0.058 µM
same,Drug metabolism,[4],< 0.04 nmol/min/mg
same,half-life,[5],4.6 h
same,Drug metabolism,[6],< 0.04 nmol/min/mg
same,IC50,[7],0.028 µM
same,Drug metabolism,[8],0.08 nmol/min/mg
same,solubility,[9],< 1 µM
same,"remaining at 0.5 h, 1 µM",[10],99%
same,solubility,[11],< 1 µM
same,solubility,[12],19 µM
same,IC50,Cytochrome P450 2C19,67.6 µM
same,IC50,Cytochrome P450 1A2,29.9 µM
same,IC50,Cytochrome P450 3A4 [13],15.5 µM
same,AUC(0-t),[14],12.5 µM·h
same,IC50,Cytochrome P450 3A4 [15],> 100 µM
same,IC50,Cytochrome P450 2D6,> 100 µM
same,"remaining at 0.5 h, 1 µM",[16],99%
same,bioavailability,[17],53%
same,clearance,[18],17 mL/min/kg
O=C(O)c1ccc(-n2cc(C(=O)c3c(Cl)cccc3Cl)c3ncccc32)cc1,"remaining at 0.5 h, 1 µM",[2],96%
same,"remaining at 0.5 h, 1 µM",[10],94%
same,inhibition,[19],3%
same,"remaining at 0.5 h, 1 µM",[16],100%
C[C@H]1C[C@H]2[C@@H]3CCC4=CC(=O)C=C[C@]4(C)[C@@]3(F)[C@@H](O)C[C@]2(C)[C@@]1(O)C(=O)CO,Activity,Mus musculus [20],Active
same,Activity,Mus musculus [21],Active
